US7964534B2, “Nuclear magnetic resonance assembly of chemical entities using advanced antenna probes” (Triad Liquidating Company, LLC, priority 2003, dated 2011)

Assays:
p38α MAP kinase = p38α MAP kinase (Homo sapiens, UniProt Q16539); test: phosphorylation of myelin basic protein (MBP) by p38α; assay type: biochemical
Protocol: The TTM2001.101.A09 bi-ligand compound and the fragments from which it was constructed were tested as inhibitors of p38α enzymatic activity in an assay measuring phosphorylation of myelin basic protein (MBP) by p38α.

ATP site of p38α = ATP site of p38α (Homo sapiens, UniProt Q16539); test: fluorescence polarization displacement of fluorescently tagged staurosporine; assay type: binding
Sequence of ATP site of p38α (Q16539 whole entry): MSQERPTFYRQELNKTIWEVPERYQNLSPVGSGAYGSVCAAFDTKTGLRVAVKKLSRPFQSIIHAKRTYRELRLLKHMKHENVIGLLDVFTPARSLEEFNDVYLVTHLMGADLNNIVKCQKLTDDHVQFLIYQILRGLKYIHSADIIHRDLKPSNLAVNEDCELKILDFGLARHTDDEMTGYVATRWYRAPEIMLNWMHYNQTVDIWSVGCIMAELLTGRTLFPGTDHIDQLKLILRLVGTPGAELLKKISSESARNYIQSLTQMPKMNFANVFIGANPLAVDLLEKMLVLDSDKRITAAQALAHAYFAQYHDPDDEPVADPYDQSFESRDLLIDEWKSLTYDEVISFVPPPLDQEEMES

[1] = target: unactivated p38α MAP kinase (Homo sapiens, UniProt Q16539); test: WaterLOGSY screen of PBBA structure analogs; assay type: binding; conditions: 10 to 30 micromolar p38α, 0.1 to 1.0 millimolar compound, 4° C.
Sequence of unactivated p38α MAP kinase (Q16539 whole entry): as above
Description: A library of 29 PBBA structure analogs was screened against unlabeled p38α MAP kinase (p38α) as follows. Samples containing 10 to 30 micromolar concentration of unactivated p38α MAP kinase and 0.1 to 1.0 millimolar concentration of one of the PBBA structure analogs were obtained. The samples were screened using WaterLOGSY with saturations times of 2 s (frequency selective excitation via a train of 232 6 ms it pulses with a GAUSS profile at an 80 Hz RF field strength) with […] using WATERGATE at 4° C. WaterLOGSY is further described in Dalvit et al. J. Biomol. NMR 21:349-59 (2001) Dalvit et al. J. Magn. Res. B112:282-288 (1996) and Dalvit et al., J. Biomol. NMR 11:437-444 (1998).

p38α [2] = target: T1, p38α (Homo sapiens, UniProt Q16539); test: line broadening in 1D 1H NMR spectra; assay type: binding; design: dose or concentration left out as unconfirmed; conditions: 50 micromolar compound
T1 sequence (Q16539 whole entry): as above
Protocol: The ability of TTM2001.101.A09 to bind to p38α was determined by comparing the degree of line broadening in 1D ^1H NMR spectra for the compound in the presence of p38α compared to in the absence of p38α. […] (FIG. 4b) compared to the spectrum obtained for 50 micromolar of TTM2001.101.A09 in the absence of p38α (FIG. 4a), indicative of tight binding between p38α and TTM2001.101.A09.

p38α [3] = target: T1, p38α; test: WaterLOGSY competition experiments; assay type: binding
Description: A peptide having the sequence […] (SEQ ID NO:1) is a known phosphorylation substrate for p38 as described, for example, in Chen et al. Biochemistry 39:2079-2087 (2000). […] This site is shown in the lower panel of FIG. 7, and is referred to as the SL (specificity ligand) site, since extending a bi-ligand library into this site off of an ATP mimic might provide additional specificity.

Sequence of p38α MAP kinase (Q16539 whole entry, the tested form may be a part): as the sequence (Q16539 whole entry) above

Molecule: CCCCc1ccc(C(=O)O)cc1 [PBBA, p-butyl benzoic acid]
- inhibition of phosphorylation of MBP protein by p38α (p38α MAP kinase): inhibit phosphorylation of MBP protein by p38α
- displacement of fluorescently tagged staurosporine (ATP site of p38α): not able to displace a fluorescently tagged staurosporine
- cross-saturation effects with p38α (binding) [1]: showed cross-saturation effects with p38α indicating binding to the protein

Molecule: O=C(O)c1ccc(CCCCCCSCc2cc(-n3cnc4cc(C(=O)O)ccc43)ccc2F)cc1 [TTM2001.101.A09]
- tighter than either of the starting fragments (p38α MAP kinase; IC50 compared with starting fragments PBBA and TTM2001.082.B09): greater than 100 fold
- Kd (p38α MAP kinase; correction of the IC50 for high ATP concentration, read-out: Kd for binding between p38α and compound): ~300 nM
- IC50 (p38α MAP kinase; inhibition of MBP phosphorylation by p38α): 1700 nM
- line broadening in presence of p38α (binding) (p38α [2]): significant line-broadening

Molecule: IPTTPITTTYFFFKKK [peptide, known phosphorylation substrate for p38]
- displacement of PBBA from p38α (p38α [3]): could not displace PBBA from p38α
